Values quoted from earlier work, collected in US20090054377A1, “COMPOSITIONS AND METHODS FOR SMOKING CESSATION” (MODUS BIOLOGICAL MEMBRANES LTD., priority 2004, published 2009).
Read-outs that look alike come from different tables or passages of the source.

Tests used:
smokers [1] = test system: smokers
smokers [2] = details: in vivo
[3] = other smoking cessation remedies

In the case of `CC(NC(C)(C)C)C(=O)c1cccc(Cl)c1` (stereo not shown) [Bupropion (Zyban), Bupropion], the “% Quitters” value (smokers [1]; 300 mg/day) is given as 25%, the “Absolute quit rate (quit rate − quit rate of placebo)” value (smokers [1]; 300 mg/day) is given as 11 and the “% Quitters” value (smokers [1]; [3]) is given as 22.5%. The “Absolute quit rate (quit rate − quit rate of placebo)” value (smokers [1]; [3]) was 13.5, the “Adverse Events: Anxiety” value (smokers [2]) was 8% and the “Adverse Events: Constipation” value (smokers [2]) was 8%. The “Adverse Events: Diarrhea” value (smokers [2]) was 4%, the “Adverse Events: Dizziness” value (smokers [2]) was 8-10% and the “Adverse Events: Dream abnormality” value (smokers [2]) was 5%. The “Adverse Events: Dry Mouth” value (smokers [2]) was 1-11%, the “Adverse Events: Insomnia” value (smokers [2]) was 31-40% and the “Adverse Events: Rhinitis” value (smokers [2]) was 12%. The “Adverse Events: Seizures” value (smokers [2]) was 0.4%.
